Literature values, collected in US6994842B2, “Aerogel powder therapeutic agents” (Aspen Aerogels, Inc., priority 2000, dated 2006).

Row | SMILES | solubility in water | solubility in supercritical carbon dioxide (supercritical carbon dioxide)
1 | CCC(=O)C(CC(C)N(C)C)(c1ccccc1)c1ccccc1 (stereo not drawn) [Methadone] | 12 g/100 mL | –
2 | O=C1CC[C@@]2(O)[C@H]3Cc4ccc(O)c5c4[C@@]2(CCN3CC2CC2)[C@H]1O5 [free base Naltrexone, Naltrexone] | not that soluble | highly soluble
